From PubChem BioAssay AID2060513 (Molecular Pharmacology Branch, DTP, NCI, 2025)

Test system: 299254-011-R-J1-PDC complex spheroids viability
Test: Anticancer human tumor 299254-011-R-J1-PDC patient-derived melanoma cell line growth inhibition [GQUAD]
Settings: for IC50: curve of first compound; for viability, T/C: stronger effect = lower value
How it was run: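 Viability of tumor cells grown as complex spheroids with endothelial and stromal cells, exposed to drug combinations. Top concentration at or near clinical Cmax (else 10 microM), diluted in half-log increments.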

[1] = second compound 0.0316 µM, first compound 0.0316 µM
[2] = second compound 0.0316 µM, first compound 0.1 µM
[3] = second compound 0.0316 µM, first compound 0.316 µM
[4] = second compound 0.0316 µM, first compound 1 µM
[5] = second compound 0.0316 µM, first compound 3.16 µM
[6] = second compound 0.0316 µM, first compound 10 µM
[7] = second compound 0.1 µM, first compound 0.0316 µM
[8] = second compound 0.1 µM, first compound 0.1 µM
[9] = second compound 0.1 µM, first compound 0.316 µM
[10] = second compound 0.1 µM, first compound 1 µM
[11] = second compound 0.1 µM, first compound 3.16 µM
[12] = second compound 0.1 µM, first compound 10 µM
[13] = second compound 0.316 µM, first compound 0.0316 µM
[14] = second compound 0.316 µM, first compound 0.1 µM
[15] = second compound 0.316 µM, first compound 0.316 µM
[16] = second compound 0.316 µM, first compound 1 µM
[17] = second compound 0.316 µM, first compound 3.16 µM
[18] = second compound 0.316 µM, first compound 10 µM
[19] = second compound 1 µM, first compound 0.0316 µM
[20] = second compound 1 µM, first compound 0.1 µM
[21] = second compound 1 µM, first compound 0.316 µM
[22] = second compound 1 µM, first compound 1 µM
[23] = second compound 1 µM, first compound 3.16 µM
[24] = second compound 1 µM, first compound 10 µM
[25] = second compound 3.16 µM, first compound 0.0316 µM
[26] = second compound 3.16 µM, first compound 0.1 µM
[27] = second compound 3.16 µM, first compound 0.316 µM
[28] = second compound 3.16 µM, first compound 1 µM
[29] = second compound 3.16 µM, first compound 3.16 µM
[30] = second compound 3.16 µM, first compound 10 µM
[31] = second compound 10 µM, first compound 0.0316 µM
[32] = second compound 10 µM, first compound 0.1 µM
[33] = second compound 10 µM, first compound 0.316 µM
[34] = second compound 10 µM, first compound 1 µM
[35] = second compound 10 µM, first compound 3.16 µM
[36] = second compound 10 µM, first compound 10 µM
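Also: spheroids exposed to the agents for seven days before readout.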
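For viability, T/C in this document: percent viability relative to DMSO vehicle control wells = 100%.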

`CC(C)n1c(=O)n(C)c2cnc3cc(F)c(-c4ccc(OCCCN5CCCCC5)nc4)cc3c21` + Cc1[nH]c2ccc(F)cc2c1-c1nc2c3cccnc3c3ncccc3c2[nH]1 was tested, and the IC50 (second compound 0.0316 µM) was over 10000 nM, the IC50 (second compound 0.1 µM) was over 10000 nM and the IC50 (second compound 0.316 µM) was over 10000 nM. For the same compound, the IC50 (second compound 1 µM) was over 10000 nM, the IC50 (second compound 3.16 µM) was over 10000 nM and the IC50 (second compound 10 µM) was 9860 nM. The viability, T/C [1] was 90.2%, the viability, T/C [2] was 94.3% and the viability, T/C [3] was 98.1%. It also gave a viability, T/C [4] of 75.2%, a viability, T/C [5] of 86.7% and a viability, T/C [6] of 54.3%. For the same compound, the viability, T/C [7] was 85.9%, the viability, T/C [8] was 103% and the viability, T/C [9] was 124%. It also gave a viability, T/C [10] of 96.5%, a viability, T/C [11] of 83.1% and a viability, T/C [12] of 58.3%. It also gave a viability, T/C [13] of 106%, a viability, T/C [14] of 98.8% and a viability, T/C [15] of 105%. The viability, T/C [16] was 94.2%, the viability, T/C [17] was 84.4% and the viability, T/C [18] was 52.4%. For the same compound, the viability, T/C [19] was 83%, the viability, T/C [20] was 97.7% and the viability, T/C [21] was 118%. The viability, T/C [22] was 115%, the viability, T/C [23] was 98.8% and the viability, T/C [24] was 58.1%. For the same compound, the viability, T/C [25] was 89.9%, the viability, T/C [26] was 107% and the viability, T/C [27] was 89.5%. For the same compound, the viability, T/C [28] was 111%, the viability, T/C [29] was 94.4% and the viability, T/C [30] was 56.9%. It also gave a viability, T/C [31] of 96.8%, a viability, T/C [32] of 107% and a viability, T/C [33] of 98%. The viability, T/C [34] was 84.8%, the viability, T/C [35] was 96.8% and the viability, T/C [36] was 49.5%.
For `CC1COCCN1c1cc(-c2ccnn2C)c2ccnc(-c3ccn[nH]3)c2n1` (stereo unspecified) + Cc1[nH]c2ccc(F)cc2c1-c1nc2c3cccnc3c3ncccc3c2[nH]1, the IC50 (second compound 0.0316 µM) was 180 nM, the IC50 (second compound 0.1 µM) was 177 nM and the IC50 (second compound 0.316 µM) was 245 nM. The IC50 (second compound 1 µM) was 201 nM, the IC50 (second compound 3.16 µM) was 187 nM and the IC50 (second compound 10 µM) was 88.9 nM. For the same compound, the viability, T/C [1] was 111%, the viability, T/C [2] was 65% and the viability, T/C [3] was 36.1%. The viability, T/C [4] was 19.6%, the viability, T/C [5] was 21.5% and the viability, T/C [6] was 13.1%. The viability, T/C [7] was 80.3%, the viability, T/C [8] was 70.3% and the viability, T/C [9] was 29.1%. It also gave a viability, T/C [10] of 21.6%, a viability, T/C [11] of 17% and a viability, T/C [12] of 12.9%. The viability, T/C [13] was 90%, the viability, T/C [14] was 88.4% and the viability, T/C [15] was 38.8%. For the same compound, the viability, T/C [16] was 22.4%, the viability, T/C [17] was 14.2% and the viability, T/C [18] was 15%. It also gave a viability, T/C [19] of 93.1%, a viability, T/C [20] of 70.4% and a viability, T/C [21] of 36.5%. For the same compound, the viability, T/C [22] was 21.9%, the viability, T/C [23] was 16.4% and the viability, T/C [24] was 17.4%. The viability, T/C [25] was 84.5%, the viability, T/C [26] was 71.8% and the viability, T/C [27] was 31.8%. The viability, T/C [28] was 14.5%, the viability, T/C [29] was 12.2% and the viability, T/C [30] was 15.2%. It also gave a viability, T/C [31] of 74.1%, a viability, T/C [32] of 47% and a viability, T/C [33] of 26.7%. It also gave a viability, T/C [34] of 17.4%, a viability, T/C [35] of 12.1% and a viability, T/C [36] of 15.4%.
`CC1COCCN1c1cc(C2(O)CC3CCC(C2)O3)c2cnn(-c3ccn[nH]3)c2n1` (stereo unspecified) + Cc1[nH]c2ccc(F)cc2c1-c1nc2c3cccnc3c3ncccc3c2[nH]1 showed an IC50 (second compound 0.0316 µM) of 127 nM, an IC50 (second compound 0.1 µM) of 135 nM and an IC50 (second compound 0.316 µM) of 178 nM. The IC50 (second compound 1 µM) was 125 nM, the IC50 (second compound 3.16 µM) was 109 nM and the IC50 (second compound 10 µM) was 83.8 nM. For the same compound, the viability, T/C [1] was 83.2%, the viability, T/C [2] was 54.7% and the viability, T/C [3] was 31.3%. It also gave a viability, T/C [4] of 14.4%, a viability, T/C [5] of 12.2% and a viability, T/C [6] of 8.75%. For the same compound, the viability, T/C [7] was 72.7%, the viability, T/C [8] was 60.4% and the viability, T/C [9] was 20.7%. For the same compound, the viability, T/C [10] was 14.7%, the viability, T/C [11] was 14.4% and the viability, T/C [12] was 7.02%. For the same compound, the viability, T/C [13] was 77.3%, the viability, T/C [14] was 76.6% and the viability, T/C [15] was 23.8%. It also gave a viability, T/C [16] of 19.6%, a viability, T/C [17] of 12.6% and a viability, T/C [18] of 7.48%. For the same compound, the viability, T/C [19] was 73.7%, the viability, T/C [20] was 55.8% and the viability, T/C [21] was 30.4%. It also gave a viability, T/C [22] of 22.1%, a viability, T/C [23] of 13.7% and a viability, T/C [24] of 7.91%. The viability, T/C [25] was 84.5%, the viability, T/C [26] was 52.7% and the viability, T/C [27] was 22.5%. For the same compound, the viability, T/C [28] was 16%, the viability, T/C [29] was 14% and the viability, T/C [30] was 6.07%. For the same compound, the viability, T/C [31] was 73%, the viability, T/C [32] was 46.9% and the viability, T/C [33] was 21.8%. The viability, T/C [34] was 15.1%, the viability, T/C [35] was 9.33% and the viability, T/C [36] was 4.43%.
